A short description of data set [1]: Solubility of 25HC3S in aqueous solutions, organic solvents or oils. The note with it: various aqueous solutions and FDA approved organic solvents or oils. The format is physicochemical. From the text: (§1) The HPLC technique involved reverse phase HPLC for measuring the concentration of 25HC3 S in the solubility samples.
Data set [2] in a line: Homogeneity and content uniformity of 25HC3S suspension by HPLC. The format is physicochemical. Here is the method: as §1
(§2) Weigh 80 mg of 25HC3S (Lot #B, Passed through 20 mesh screen and Jet-milled, 3rd pass) into a 10 mL vial. Add to the vial, 8 mL of Vehicle PEG 3350 (with 0.15% L-Methionine and 0.9% NaCl). […] A total of 9 samples were dispensed using 1 mL BD syringes attached to 20G1″ or 25G⅝″ Terumo UTW needles for homogeneity analysis by HPLC (Study #14) and stability study (Study #17).
Weigh 50 and 80 mg of 25HC3S into 2 and 10 mL vials, respectively. Add to the vial, 2 mL and 8 mL of Vehicle PEG 3350 with L-Methionine. […] The vial was inverted 10 times prior to dispensing 0.2 or 0.9 mL into volumetric flasks for methanol dilution for HPLC analysis (total 8 and 7 samples, respectively for HPLC analysis for potency and stability (Study #15).
Weighed approximately 125 mg each of 25HC3S (Lot #C, jet milled and passed through a 20 mesh screen) into a 10 mL vial. Added to vial, 5 mL of Vehicle PEG 3350 without L-Methionine. The vial was placed horizontally in a flat bed shaker, shaken at 100 rpm for up 45 minutes (Mixing Method 4). There were some small wet lumps stuck to the wall and bottom of the glass vial.
Weigh 87 mg of 25HC3S (Lot #C, Jet milled and then pass 20 mesh screen) into a 5-mL vial. Add to the vial 3 mL Vehicle PEG 3350 (without L-methionine and with 0.75% NaCl). […] Weigh another approximately and accurately 90 mg each of 25HC3S (Lot #D and Lot #B, micronized, one pass) into 3 separate 10 mL vials with 3 mL of Vehicle PEG 3350. The vials were placed in a flat bed shaker at 200 rpm for 45 minutes (Mixing Method 4). […] A second set of samples was prepared likewise from the same 3 vials except using 1 mL BD syringe attached to a 27G½″ needle. The homogeneity was determined (Study #19).

The subject of data set [3] is non-alcoholic steatohepatitis (NASH). The experiment in a line: Accelerated mouse model of NASH (STZ + HFD), Part II. The format is in vivo, C57BL/6J mice. The note with it: 50 mg/kg daily oral. The protocol: The subjects for the study were 36 C57BL/6J male mice. Mice were given 200 μg streptozotocin (STZ) at 2 days after birth and fed high fat diet (HFD) starting at four weeks of age until the remainder of the study (13 weeks of age). This intervention early in their lives induces accelerated progression of non-alcoholic steatohepatitis (NASH) and has been thoroughly characterized.
The Vehicle was a solution of 0.5% (w/v) CMC and 0.05% (v/v) Tween-80 in water. Powdered 25HC3 S was constituted into the Vehicle solution to result in drug concentration of 10 mg/mL. The suspensions were homogenized for approximately 5 minutes (with 10 second breaks every 30-40 seconds) and swirled before dosing to maintain homogeneity. The formulated test article was prepared weekly and kept at room temperature.
Mice were divided into treatment groups (N=10/group) and dosed daily by oral gavage with water (control), Vehicle or 50 mg/kg 25HC3 S starting from Week 9 to Week 13 (28 days treatment).

The nature of data set [4]: Stability and impurity profile of 25HC3S suspension at room temperature by HPLC. It counts as physicochemical. The protocol:
as §1, §2

Where [5] appears, read: Week 9 to 13, vs Vehicle, p<0.05.

Structures are written as SMILES.

Regarding `C[C@H](CCCC(C)(C)O)[C@H]1CC[C@H]2[C@@H]3CC=C4C[C@@H](OS(=O)(=O)[O-])CC[C@]4(C)[C@H]3CC[C@]12C.[Na+]` [Formulation 25HC3S, 5-cholesten-3, 25-diol, 3-sulfate], the solubility result in data set [1] is on record as “low solubility”. The homogeneity is recorded as 100.5-103.1 % LS in data set [2] (10 mg/mL in Vehicle PEG 3350 (with 0.15% L-Methionine), n=7, 0.9 mL each, Study #15); 94.3-98.1 % LS in data set [2] (10 mg/mL suspension in Vehicle PEG 3350 (0.15% L-Methionine, 0.9% NaCl), Lot #B jet-milled 3rd pass, n=9, Study #14); 96.2-109.4 % LS in data set [2] (25 mg/mL in Vehicle PEG 3350 (with 0.15% L-Methionine), n=8, 0.2 mL each, Study #15). In data set [2] (final improved formulation 25 mg/mL (Study #19)), the “homogeneity (and content uniformity)” value was 89.3-105.9 % label strength. Further, the “NAS (NAFLD activity score)” value in data set [3] (Week 9 to 13, vs Vehicle) was “trend of reduction”. For the same compound, in data set [3] (setting [5]), the hepatocyte ballooning result was “significant reduction”. Further, the “percent area of fibrosis (Sirius red-positive area)” value in data set [3] (setting [5]) was “significantly decreased”. Besides, in data set [3] (compared to baseline Week 9 mice), the extent of fibrosis result is “trended lower”. In addition, the odor after storage entry in data set [4] (25HC3S in Vehicle PEG 3350 with L-Methionine, room temperature for a few months) is given as “produced a sulfur-like odor”. For the same compound, in data set [4] (after 2 weeks at RT, 25 mg/mL in Vehicle PEG 3350 (with 0.15% L-Methionine), 25HC3S plus two impurities as 100%, n=2), the “% peak area for 25HC3S” value is recorded as “approximately 99.17%”. In data set [4] (after 2 weeks at RT, time 0 concentration as 100%, n=2, 25 mg/mL in Vehicle PEG 3350 (with 0.15% L-Methionine)), the drug potency is on record as 103.7%. In data set [4] (final suspension formulation 25 mg/mL, room temperature up to 14 days), the “25HC3S by peak area normalization” value stood at 99.172%. Moreover, in data set [4] (suspension 25 mg/mL in Vehicle PEG 3350 (with 0.15% L-Methionine)), the “stable at ambient room temperature” value is recorded as “at least 2 weeks”.

These data come from patent publication US20220175798A1, “COMPOSITIONS COMPRISING OXYGENATED CHOLESTEROL SULFATE AND AT LEAST ONE OF POLYALKYLENE GLYCOL, CARBOXYMETHYL CELLULOSE AND POLYOXYLGLYCERIDE” (Durect Corporation, priority 2016, published 2022).
